Assay results reported in ChEMBL document CHEMBL1150823, “Two bioactive saponins from Albizia subdimidiata from the Suriname rainforest” (J Nat Prod, 2001).
In brackets after ≈: the same amount, converted by molar mass.

Tests used:
A2780 = assay: Cytotoxicity against human A2780 cells; type: functional, cell-based
Saccharomyces cerevisiae [1] = assay: DNA damaging activity against Saccharomyces cerevisiae 1353 assessed as concentration required to produce 12 mm zone of inhibition; type: functional
Saccharomyces cerevisiae [2] = assay: DNA damaging activity against Saccharomyces cerevisiae 1138 assessed as concentration required to produce 12 mm zone of inhibition; type: functional
Saccharomyces cerevisiae [3] = assay: DNA damaging activity against Saccharomyces cerevisiae 1140 assessed as concentration required to produce 12 mm zone of inhibition; type: functional
Saccharomyces cerevisiae [4] = assay: DNA damaging activity against Saccharomyces cerevisiae Sc7 assessed as concentration required to produce 12 mm zone of inhibition; type: functional

In the case of `CC(=O)N[C@H]1[C@H](O[C@H]2CC[C@]3(C)[C@H]4CC=C5[C@@H]6CC(C)(C)CC[C@]6(C(=O)O)CC[C@@]5(C)[C@]4(C)CC[C@H]3C2(C)C)O[C@H](CO[C@@H]2OC[C@H](O)[C@H](O)[C@H]2O[C@@H]2OC[C@H](O)[C@H](O)[C@H]2O)[C@@H](O)[C@@H]1O`, the IC50 (A2780) is reported as 0.8 µg/mL (≈ 0.866 µM), the Activity (Saccharomyces cerevisiae [1]) is reported as 30 µg/mL and the Activity (Saccharomyces cerevisiae [2]) is reported as 25 µg/mL. It also gave an Activity (Saccharomyces cerevisiae [3]) of 40 µg/mL and an Activity (Saccharomyces cerevisiae [4]) of 45 µg/mL.
For `CC(=O)N[C@H]1[C@H](O[C@H]2CC[C@]3(C)[C@H]4CC=C5[C@@H]6CC(C)(C)CC[C@]6(C(=O)O)CC[C@@]5(C)[C@]4(C)CC[C@H]3C2(C)C)O[C@H](CO[C@@H]2OC[C@H](O)[C@H](O)[C@H]2O[C@@H]2OC[C@@H](O)[C@H](O)[C@H]2O)[C@@H](O)[C@@H]1O` [ALBIZIATRIOSIDE A], the IC50 (A2780) was 0.9 µg/mL (≈ 0.974 µM), the Activity (Saccharomyces cerevisiae [1]) was 35 µg/mL and the Activity (Saccharomyces cerevisiae [2]) was 30 µg/mL. The Activity (Saccharomyces cerevisiae [3]) was 35 µg/mL and the Activity (Saccharomyces cerevisiae [4]) was 30 µg/mL.
